{"source": "patent US7622638B2", "about": "“Genetic manipulation of condensed tannins” (priority 2002, dated 2009)", "key": {"[1]": {"test_system": "MtBAN", "assay": "Anthocyanidin reductase activity assay with recombinant MtBAN protein extract (HPLC of products)", "assay_type": "biochemical, Medicago truncatula", "settings": "for conversion of flavan-3-ol into its isomer on incubation with MtBAN: in the presence of NADPH; for reduction of anthocyanidin substrate to flavan-3-ol product(s) by MtBAN: MtBAN protein extract, NADPH, Tris-HCl pH 7.0, 30° C. for 30 min, HPLC"}, "[2]": {"molecular_target": "AtBAN (Arabidopsis thaliana, UniProt Q9SEV0)", "sequence (Q9SEV0 other isoform, or with tags, fused parts or gaps K55Q/I146L/V156I/E157D/T179K/K185E)": "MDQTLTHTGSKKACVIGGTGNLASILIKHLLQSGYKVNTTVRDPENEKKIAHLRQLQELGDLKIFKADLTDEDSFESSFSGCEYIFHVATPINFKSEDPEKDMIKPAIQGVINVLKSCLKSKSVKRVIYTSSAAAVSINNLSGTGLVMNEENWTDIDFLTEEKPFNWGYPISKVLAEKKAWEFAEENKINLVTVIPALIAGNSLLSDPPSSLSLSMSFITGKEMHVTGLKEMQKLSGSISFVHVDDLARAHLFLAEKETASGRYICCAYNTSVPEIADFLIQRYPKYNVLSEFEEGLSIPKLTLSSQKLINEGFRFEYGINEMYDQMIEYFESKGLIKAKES", "assay_type": "biochemical", "settings": "for conversion of flavan-3-ol into its isomer on incubation with AtBAN: in the presence of NADPH; for reduction of anthocyanidin substrate to flavan-3-ol product by AtBAN: AtBAN protein extract (4 month old frozen), NADPH as coenzyme, HPLC"}, "[3]": {"test_system": "Anthocyanidin reductase", "assay": "Anthocyanidin reductase assay with desalted crude enzyme from Lotus corniculatus leaves", "assay_type": "biochemical", "settings": "young leaves; 100 μM cyanidin, 1 mM NADPH, 30° C. for 30 min", "procedure": "(§1) Lotus corniculatus, Desmodium uncinatum and Barley cv. Morex were grown in a green house. Young leaves from L. corniculatus, unexpanded leaves, and young pods as well as open flowers and flower buds from D. uncinatum, and young grains from Barley were collected. Testa of barley grains were excised and pooled together for enzyme extraction. Mature grape fruit stored at −80° C. was treated in pH 7 100 mM Tris.HCl buffer for 30 seconds for isolated the skin for enzyme extraction.\n(§2) A fresh one-gram leaf sample of L. corniculatus, one-gram testa from barley, and 9 grams of grape fruit skin, as well as two grams of flowers, 3 grams of young pods and 3 grams of young unexpanded leaves from Desmodium uncinatum were ground into homogenate fine powder in liquid nitrogen. The follow buffer systems were used for enzyme extraction. Extraction buffer 1: pH7 100 mM Tris.HCl, 10% glycerol and 2 mM 1,4-dithiothreitol; Extraction buffer 2: pH8 50 mM phosphate buffer, 10% glycerol, 1.5% polyethyleneglycerol 4000 (PEG-4000), 2 mM pH 8.0 Na-DETA, 25 mM sodium ascorbate, 20 mM β-mecaptoenthanol, and 5 mM 1,4-dithiothreitol; Extraction buffer 3: pH8 100 mM Tris.HCl, 10% glycerol 1.5% polyethyleneglycerol 4000 (PEG-4000), 2 mM pH 8.0 Na-DETA, 25 mM sodium ascorbate, 80 mM β-mecaptoenthanol, and 5 mM 1,4-dithiothreitol. […]"}, "[4]": {"test_system": "Anthocyanidin reductase", "assay": "Anthocyanidin reductase assay with desalted crude enzyme from barley testa tissue", "assay_type": "biochemical, Hordeum vulgera (barley) cv. morex", "settings": "100 μM cyanidin, 1 mM NADPH, 30° C. for 30 min", "procedure": "as §1, §2"}, "[5]": {"test_system": "Anthocyanidin reductase (ANR)", "assay": "Anthocyanidin reductase assay with desalted crude enzyme from Desmodium uncinatum tissues", "assay_type": "biochemical", "settings": "100 μM cyanidin, 1 mM NADPH", "procedure": "as §1\nA fresh one-gram leaf sample of L. corniculatus, one-gram testa from barley, and 9 grams of grape fruit skin, as well as two grams of flowers, 3 grams of young pods and 3 grams of young unexpanded leaves from Desmodium uncinatum were ground into homogenate fine powder in liquid nitrogen. The follow buffer systems were used for enzyme extraction. Extraction buffer 1: pH7 100 mM Tris.HCl, 10% glycerol and 2 mM 1,4-dithiothreitol; Extraction buffer 2: pH8 50 mM phosphate buffer, 10% glycerol, 1.5% polyethyleneglycerol 4000 (PEG-4000), 2 mM pH 8.0 Na-DETA, 25 mM sodium ascorbate, 20 mM β-mecaptoenthanol, and 5 mM 1,4-dithiothreitol; Extraction buffer 3: pH8 100 mM Tris.HCl, 10% glycerol 1.5% polyethyleneglycerol 4000 (PEG-4000), 2 mM pH 8.0 Na-DETA, 25 mM sodium ascorbate, 80 mM β-mecaptoenthanol, and 5 mM 1,4-dithiothreitol.\nThe homogenate powder of lotus leaf and barley testa tissue was suspended in 5 ml extraction buffer 1, in which 1% proteinase inhibitor (Sigma) (V/V) was added. The homogenate powder of flowers and pods from Desmodium was suspended in extraction buffer 2, also in which 1% proteinase inhibitor (Sigma) (V/V) was added. The fine powder of Desmodium leaves or grape fruit skin was respectively suspended in 6 ml or 50 ml extraction buffer 3, in which 1% proteinase inhibitor (Sigma) (V/V) is added. The homogenates were vortexed vigorously and stayed on ice for 5-10 mm, squeezed through microcloth into 50 ml tubes and then 1/5 (W/V) equilibrated Dowex 1×2 was added into collected squeezed mixture solution. […]"}, "[6]": {"test_system": "Anthocyanidin reductase", "assay": "Anthocyanidin reductase assay with desalted crude enzyme from grape fruit skin", "assay_type": "biochemical, Vitis vinifer", "settings": "100 μM cyanidin, 1 mM NADPH, 30° C. for 30 min", "procedure": "as §1, §2"}, "[7]": {"settings": "reactions containing leucoanthocyanidins, repeated attempts"}}, "data": [{"compound": "Oc1cc(O)c2c(c1)O[C@H](c1ccc(O)c(O)c1)[C@@H](O)C2", "note": "[(+)-catechin]", "values": [{"measurement": "conversion of flavan-3-ol into its isomer on incubation with MtBAN", "setting": "[1]", "value": "does not produce"}, {"measurement": "conversion of flavan-3-ol into its isomer on incubation with AtBAN", "setting": "[2]", "value": "does not produce"}]}, {"compound": "Oc1ccc(-c2[o+]c3cc(O)cc(O)c3cc2O)cc1", "note": "[pelargonidin, Pelargonidin chloride]", "values": [{"measurement": "reduction of anthocyanidin substrate to flavan-3-ol product(s) by MtBAN", "setting": "[1]", "value": "tentatively identified as epi-afzelechin"}, {"measurement": "reduction of anthocyanidin substrate to flavan-3-ol product by AtBAN", "setting": "[2]", "value": "pelargonidin into epi-alfzelechin"}]}, {"compound": "NC(=O)C1=CN([C@@H]2O[C@H](COP(=O)(O)OP(=O)(O)OC[C@H]3O[C@@H](n4cnc5c(N)ncnc54)[C@H](OP(=O)(O)O)[C@@H]3O)[C@@H](O)[C@H]2O)C=CC1", "note": "[NADPH]", "values": [{"measurement": "co-factor dependence of conversion of anthocyanidins to flavan-3-ols", "setting": "[1]; NADPH omitted from the enzyme assay mixtures", "value": "NADPH-dependent"}]}, {"compound": "Oc1cc(O)c2cc(O)c(-c3ccc(O)c(O)c3)[o+]c2c1.[Cl-]", "note": "[cyanidin, cyanidin chloride]", "values": [{"measurement": "conversion of cyanidin by extract with NADPH", "setting": "[3]", "value": "producing epicatechin"}, {"measurement": "reduction of anthocyanidin substrate to flavan-3-ol product(s) by MtBAN", "setting": "[1]", "value": "reducing cyanidin to the corresponding flavan-3-ols, catechin and epicatechin"}, {"measurement": "conversion of cyanidin by extract with NADPH", "setting": "[4]", "value": "producing epicatechin"}, {"measurement": "conversion of cyanidin by extract with NADPH", "setting": "[5]; ANR from flowers", "value": "producing epicatechin"}, {"measurement": "conversion of cyanidin by extract with NADPH", "setting": "[5]; ANR from leaves", "value": "producing epicatechin"}, {"measurement": "conversion of cyanidin by extract with NADPH", "setting": "[5]; ANR from young pods", "value": "producing epicatechin"}, {"measurement": "reduction of anthocyanidin substrate to flavan-3-ol product by AtBAN", "setting": "[2]", "value": "reduction of cyanidin to epicatechin"}, {"measurement": "conversion of cyanidin by extract with NADPH", "setting": "[6]", "value": "producing epicatechin"}]}, {"compound": "leucoanthocyanidins", "values": [{"measurement": "LAR activity with recombinant MtBAN", "setting": "[1]; [7]", "value": "no LAR activity was observed"}, {"measurement": "LAR activity with recombinant AtBAN", "setting": "[2]; [7]", "value": "no LAR activity was observed"}]}, {"compound": "Oc1cc(O)c2c(c1)O[C@H](c1ccc(O)c(O)c1)[C@H](O)C2", "note": "[(−) epicatechin, (−)-epicatechin]", "values": [{"measurement": "conversion of flavan-3-ol into its isomer on incubation with MtBAN", "setting": "[1]", "value": "does not produce"}, {"measurement": "conversion of flavan-3-ol into its isomer on incubation with AtBAN", "setting": "[2]", "value": "does not produce"}]}, {"compound": "NC(=O)C1=CN([C@@H]2O[C@H](COP(=O)(O)OP(=O)(O)OC[C@H]3O[C@@H](n4cnc5c(N)ncnc54)[C@H](O)[C@@H]3O)[C@@H](O)[C@H]2O)C=CC1", "note": "[NADH]", "values": [{"measurement": "conversion with NADH relative to the level achieved with NADPH at the same concentration", "setting": "[1]; NADH 2 mM final concentration substituted for NADPH", "value": "approximately 50%"}]}, {"compound": "Oc1cc(O)c2cc(O)c(-c3cc(O)c(O)c(O)c3)[o+]c2c1", "note": "[delphinidin, delphinidin chloride]", "values": [{"measurement": "reduction of anthocyanidin substrate to flavan-3-ol product(s) by MtBAN", "setting": "[1]", "value": "catalyzed the reduction of delphinidin into putative gallo-catechin and epi-gallocatechin"}, {"measurement": "reduction of anthocyanidin substrate to flavan-3-ol product by AtBAN", "setting": "[2]", "value": "delphinidin into gallocatechin"}]}]}
